Measured values as given in US10519111B2, “UV absorbing compounds, compositions comprising same and uses thereof” (CORAL SUNSCREEN PTY LTD, priority 2013, dated 2019).
“And” between values parts separate entries of the source, which are not always exact repeats. Identical values can stand only once. Each block holds one compound with its values, some of them ahead of it.

Experiments:
[1] = Critical wavelength (λcrit), approximate in-house measurement; type: physicochemical
Text: As the precise test for critical wavelength was unable to be replicated exactly by the inventors due to the need for specialist equipment and a specific calibration of the spectrophotometer, these values are only approximate to a degree. […] This represents a highly useful result and so, compounds based around this benzoyl substitution pattern shown, are especially preferred.

[2] = UV absorption properties (λmax, molar extinction coefficient ε, efficiency E 1%, 1 cm); type: physicochemical
[3] = Table 10, bis and mono enamine compounds
[4] = Table 13B, miscellaneous compounds
[5] = Table 13B, values in order of the λmax values
[6] = Table 13B, values in order of the λmax values, in M-1 cm-1
[7] = values in order of the λmax values

SMILES: CN(C(=O)C1=CN(C(C)(C)C)CCC1(C)C)c1ccccc1 [drawing 58]
- Ε (1%, 1 cm) ([2]; Table 3): 506
- λmax ([2]; Table 3, compounds from isocyanates or isothiocyanates): 312 nm
- ε ([2]; Table 3, in M-1 cm-1): 15174
- λcrit ([1]; Table 3): 337 nm

SMILES: CC1(C)CCN(c2cccc3ccccc23)C=C1C(=O)C(F)(F)F [drawing 143]
- E (1%, 1 cm) ([2]; Table 9): 985
- λmax ([2]; Table 9, C3-trifluoroacetylated N-aryl enamines): 325 nm
- ε ([2]; Table 9, in M-1 cm-1): 32790
- λcrit ([1]; Table 9): 348 nm

SMILES: Cc1cc(/C=C/C(=O)C2=CN(C(C)(C)C)CCC2(C)C)c(C)cc1Br
- λmax [2, 4]: 360 nm
- E (1%, 1 cm) [2, 5]: 532
- ε [2, 6]: 21473
- λcrit ([1]; Table 13B): 386 nm

SMILES: CC1(C)CCN(c2ccc(C(C)(C)C)cc2)C=C1C(=O)Nc1ccccc1 [drawing 70]
- Ε (1%, 1 cm) ([2]; Table 4): 987
- λmax ([2]; Table 4, N-aryl enamines with isocyanates): 324 nm
- ε ([2]; Table 4, in M-1 cm-1): 35759
- λcrit ([1]; Table 4): 342 nm

SMILES: CCCCC(CC)CNc1ccc(C(=O)C2=CN(C(C)(C)C)CCC2(C)C)cc1 (stereo not shown)
- λmax [2, 4]: 318 nm
- E (1%, 1 cm) [2, 5]: 551
- ε [2, 6]: 21936
- λcrit ([1]; Table 13B): 362 nm

SMILES: CC(C)CN1C=C(C(=O)c2ccc(N(C)C)cc2)C(C)(C)CC1 [drawing 83]
- E (1%, 1 cm) ([2]; Table 6A): 544
- ε ([2]; Table 6A): 17000 M⁻¹ cm⁻¹
- λmax ([2]; Table 6A, N-isobutyl-C3-benzoyl compounds): 336 nm
- λcrit ([1]; Table 6A): 362 nm

SMILES: CC1(C)CCN(c2ccccc2)C=C1C(=O)/C=C/c1ccc(/C=C/C(=O)C2=CN(c3ccccc3)CCC2(C)C)cc1
- λcrit ([1]; Table 13B): 390 nm

SMILES: CC(C)CN1C=C(C(=O)C(C#N)=C(c2ccccc2)c2ccccc2)C(C)(C)CC1 [drawing 118]
- λcrit ([1]; Table 7): 357 nm

SMILES: CC1(C)CCN(C(C)(C)C)C=C1C(=O)/C=C/c1c2ccccc2c(/C=C/C(=O)C2=CN(C(C)(C)C)CCC2(C)C)c2ccccc12
- λcrit ([1]; Table 13B): 389 nm

SMILES: CC1(C)CCN(C(C)(C)C)C=C1C(=O)CC(=O)c1ccccc1 [drawing 76]
- λcrit ([1]; Table 5): 385 nm

SMILES: COc1ccc(C(=O)CC(=O)C2=CN(CC(C)C)CCC2(C)C)cc1 [drawing 53]
- λcrit ([1]; Table 2, compounds 11-13): 389 nm

SMILES: CC(C)CN1C=C(C(=O)c2cc(C(=O)C3=CN(CC(C)C)CCC3(C)C)cc(C(=O)C3=CN(CC(C)C)CCC3(C)C)c2)C(C)(C)CC1 [Compound 22, benzene-1,3,5-triyltris ((1-isobutyl-4,4-dimethyl-1,4,5,6-tetrahydropyridin-3-yl)methanone)]
- UV λmax [2]: 316 nm
- ε (molar extinction coefficient) [2, 7]: 33000 M⁻¹ cm⁻¹

SMILES: CCC(=O)C1=CN(CC(C)C)C(=O)CC1(C)C [drawing 169]
- λmax ([2]; Table 13A, miscellaneous compounds): 291 nm

SMILES: CC(C)CN1C=C(C(=O)c2ccccc2)C(C)(C)CC1 [Compound 20, (1-isobutyl-4,4-dimethyl-1,4,5,6-tetrahydropyridin-3-yl)(phenyl)methanone]
- UV λmax [2]: 316 nm
- ε (molar extinction coefficient) [2, 7]: 19000 M⁻¹ cm⁻¹

SMILES: CCCN(CCC)c1ccc(C(=O)C2=CN(C(C)(C)C)CCC2(C)C)cc1
- λcrit ([1]; Table 13B): 365 nm

Other lines, results leading:

- λcrit ([1]; Table 1, covalently coupled compounds): 375 nm
SMILES: CC(C)CN1C=C(C(=O)CC/C=C/c2ccc(COc3ccc(C(=O)CC(=O)c4ccc(C(C)(C)C)cc4)cc3)cc2)C(C)(C)CC1

- E (1%, 1 cm) ([2]; Table 10): 977
- λmax [2, 3]: 305 nm
- ε ([2]; Table 10, in M-1 cm-1): 18164
- λcrit ([1]; Table 10): 327 nm
SMILES: CC1(C)C=CN(c2ccncc2)C=C1

- E (1%, 1 cm) ([2]; Table 6B): 1127
- λmax ([2]; Table 6B, N-tert-butyl compounds): 328 nm
- ε ([2]; Table 6B, in M-1 cm-1): 24907
- λcrit ([1]; Table 6B): 360 nm
SMILES: C=CC(=O)C1=CN(C(C)(C)C)CCC1(C)C [drawing 92]

- E (1%, 1 cm) ([2]; Table 10): 1036
- λmax [2, 3]: 278 nm
- ε ([2]; Table 10, in M-1 cm-1): 20823
- λcrit ([1]; Table 10): 321 nm
SMILES: Cc1ccc(N2C=CC(C)(C)CC2)cc1

- λmax [2, 4]: 315 nm
- E (1%, 1 cm) [2, 5]: 737
- ε [2, 6]: 26695
- λcrit ([1]; Table 13B): 361 nm
SMILES: CC1(C)CCN(C(C)(C)C)C=C1C(=O)c1ccc(Nc2ccccc2)cc1

- λcrit ([1]; Table 7): 387 nm
SMILES: CC(C)CN1C=C(C(=O)/C=C/C=Cc2ccccc2)C(C)(C)CC1 [drawing 115]

- UV λmax [2]: 339 nm
- ε (molar extinction coefficient) [2, 7]: 26633 M⁻¹ cm⁻¹
SMILES: COc1ccc(N2C=C(C(=O)COc3ccccc3)C(C)(C)CC2)cc1 [Compound 173, 1-(1-(4-methoxyphenyl)-4,4-dimethyl-1,4,5,6-tetrahydropyridine-3-yl)-2-phenoxyethanone]

- UV λmax [2]: 317 nm
- ε (molar extinction coefficient) [2, 7]: 27506 M⁻¹ cm⁻¹
SMILES: CC1(C)CCN(C(C)(C)C)C=C1C(=O)c1ccc(Br)cc1 [Compound 156, (4-bromophenyl)(1-(tert-butyl)-4,4-dimethyl-1,4,5,6-tetrahydropyridin-3-yl)methanone]

- UV λmax [2]: 396 nm and 309 nm
SMILES: CC1(C)CCN(C(C)(C)C)C=C1C(=O)CC(=O)c1ccccc1 [Compound 170, 1-(1-(tert-butyl)-4,4-dimethyl-1,4,5,6-tetrahydropyridin-3-yl)-3-phenylpropane-1,3-dione]
